Laboratory results taken from the supplement of paper PMC10307832.

What was measured:
Assay in all cases: relative viability (nuclei count vs DMSO), 5 days (fraction); higher = more cells survive
AZD1208 + Pemetrexed = compound: N[C@@H]1CCCN(c2c(/C=C3\SC(=O)NC3=O)cccc2-c2ccccc2)C1 [AZD1208] + Nc1nc2[nH]cc(CCc3ccc(C(=O)N[C@@H](CCC(=O)O)C(=O)O)cc3)c2c(=O)[nH]1 [Pemetrexed] (partner 0.2 µM)
Method in brief: (§1)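 For relative viability, nuclei counts in treated wells were divided by those in vehicle wells. Lung cancer cell lines had been pin-tool dosed in 1536-well plates the day after seeding and cultured for 5 days, then fixed and stained in one step (final 0.05% Triton X-100, 1% formaldehyde, 1 ug/ml Hoechst) and imaged at 4×. Doses were one drug alone or a fixed anchor-drug dose plus five library-drug doses (not always all listed) in √10 steps, and values are duplicate-plate medians.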

XMD14-99 + Dasatinib = compound: CN1CCN(CC1)C2=CC(=C(C=C2)NC3=NC(=C(S3)C(=O)C4=C(C=CC=C4Cl)Cl)N)OC [XMD14-99] + Cc1nc(Nc2ncc(C(=O)Nc3c(C)cccc3Cl)s2)cc(N2CCN(CCO)CC2)n1 [Dasatinib] (partner 0.075 µM)
Method in brief: as §1

AZD1208 + Tozasertib = compound: N[C@@H]1CCCN(c2c(/C=C3\SC(=O)NC3=O)cccc2-c2ccccc2)C1 [AZD1208] + Cc1cc(Nc2cc(N3CCN(C)CC3)nc(Sc3ccc(NC(=O)C4CC4)cc3)n2)n[nH]1 [Tozasertib] (partner 0.1 µM)
Method in brief: as §1

XMD14-99 + Navitoclax = compound: CN1CCN(CC1)C2=CC(=C(C=C2)NC3=NC(=C(S3)C(=O)C4=C(C=CC=C4Cl)Cl)N)OC [XMD14-99] + CC1(C)CCC(c2ccc(Cl)cc2)=C(CN2CCN(c3ccc(C(=O)NS(=O)(=O)c4ccc(N[C@H](CCN5CCOCC5)CSc5ccccc5)c(S(=O)(=O)C(F)(F)F)c4)cc3)CC2)C1 [Navitoclax] (partner 0.5 µM)
Method in brief: as §1

Cell Line	relative viability (AZD1208 + Pemetrexed; first compound 0.08 µM)	relative viability (AZD1208 + Pemetrexed; first compound 0.253 µM)	relative viability (AZD1208 + Pemetrexed; first compound 0.8 µM)	relative viability (AZD1208 + Pemetrexed; first compound 2.53 µM)	relative viability (AZD1208 + Pemetrexed; first compound 8 µM)	relative viability (XMD14-99 + Dasatinib; first compound 0.08 µM)	relative viability (XMD14-99 + Dasatinib; first compound 0.8 µM)	relative viability (XMD14-99 + Dasatinib; first compound 2.53 µM)	relative viability (XMD14-99 + Dasatinib; first compound 8 µM)	relative viability (AZD1208 + Tozasertib; first compound 0.08 µM)	relative viability (AZD1208 + Tozasertib; first compound 0.253 µM)	relative viability (AZD1208 + Tozasertib; first compound 0.8 µM)	relative viability (AZD1208 + Tozasertib; first compound 2.53 µM)	relative viability (AZD1208 + Tozasertib; first compound 8 µM)	relative viability (XMD14-99 + Navitoclax; first compound 0.08 µM)	relative viability (XMD14-99 + Navitoclax; first compound 0.8 µM)	relative viability (XMD14-99 + Navitoclax; first compound 2.53 µM)	relative viability (XMD14-99 + Navitoclax; first compound 8 µM)
LCLC-97TM1	0.188	0.176	0.125	0.175	0.171	0.837	0.766	0.73	0.559	0.223	0.23	0.175	0.135	0.132	0.43	0.455	0.268	0.382
LK-2	0.344	0.25		0.219	0.163	0.279	0.214	0.281	0.204	0.157	0.2	0.169	0.13	0.168	0.767	0.883	1.02	0.91
LOU-NH91	0.357	0.409	0.421	0.357	0.434	0.591	0.584	0.541	0.472	0.711	0.558	0.62	0.556	0.516	0.662	0.758	0.685	0.613
LU99A	0.198	0.237	0.233	0.198	0.205	0.655	0.526	0.464	0.305	0.288	0.304	0.276	0.3	0.203	0.766	0.776	0.786	0.725
LXF-289	0.887	1.01	0.924	0.634	1.02	0.238	0.173	0.208	0.204	0.178	0.158	0.16	0.131	0.123	0.903	0.913	0.884	0.836
NCI-H23	0.604	0.698	0.632	0.704	0.703	0.787	0.777	0.724	0.636	0.4	0.365	0.336	0.376	0.272	0.782	0.874	0.744	0.748
NCI-H322M	0.565	0.654		0.622	0.608	0.275	0.252	0.257	0.248	0.429	0.492	0.463	0.463	0.439	1.15	1.27	1.33	1.08
NCI-H441	0.234	0.263	0.237	0.263	0.256	0.537	0.493	0.463	0.504	0.641	0.555	0.57	0.508	0.375	0.575	0.556	0.724	0.569
NCI-H460	0.065	0.0614	0.0662	0.0615	0.055	0.497	0.545	0.475	0.475	0.461	0.473	0.474	0.347	0.389	1.06	1.02	1.03	0.767
NCI-H520	0.685	0.703	0.555	0.524	0.446	0.171	0.21	0.176	0.169	0.432	0.37	0.422	0.355	0.331	0.992	1.1	1.12	1.01
NCI-H596	0.523	0.507	0.537	0.498	0.407	0.597	0.604	0.572	0.562	0.896	0.925	0.77	0.733	0.592	1.03	0.956	0.702	0.88
NCI-H647	0.19	0.195	0.17	0.188	0.165	0.12	0.216	0.202	0.167	0.239	0.345	0.175	0.295	0.163	1.08	1.19	1.16	0.974
NCI-H838	0.239	0.26	0.243	0.26	0.228	0.303	0.324	0.245	0.216	0.277	0.261	0.267	0.268	0.264	1.15	1.11	1.1	0.747
NCI-H1355	1.1	0.944	0.934	1.04	1.04	0.777	0.702	0.655	0.476	0.539	0.474	0.407	0.389	0.308	0.87	0.863	0.782	0.778
NCI-H1395	0.937	0.859	0.699	0.787	0.673	0.391	0.425	0.457	0.363	0.803	0.68	0.677	0.629	0.571	1.06	1.11	1.09	0.902
NCI-H1437	0.302	0.307	0.327	0.355	0.322	0.437	0.457	0.35	0.234	0.429	0.378	0.335	0.353	0.351	1.06	1	0.913	0.629
NCI-H1650	0.4	0.421	0.368	0.401	0.478	0.335	0.289	0.316	0.2	0.423	0.387	0.277	0.321	0.304	1.15	1.44	0.992	1.04
NCI-H1651	0.626	0.57		0.569	0.555	0.565	0.435	0.368	0.257	0.698	0.661	0.652	0.529	0.408	0.982	1.04	0.933	0.943

Cell Line	relative viability (AZD1208 + Pemetrexed; first compound 0.08 µM)	relative viability (AZD1208 + Pemetrexed; first compound 0.253 µM)	relative viability (AZD1208 + Pemetrexed; first compound 0.8 µM)	relative viability (AZD1208 + Pemetrexed; first compound 2.53 µM)	relative viability (AZD1208 + Pemetrexed; first compound 8 µM)	relative viability (XMD14-99 + Dasatinib; first compound 0.08 µM)	relative viability (XMD14-99 + Dasatinib; first compound 0.8 µM)	relative viability (XMD14-99 + Dasatinib; first compound 2.53 µM)	relative viability (XMD14-99 + Dasatinib; first compound 8 µM)	relative viability (AZD1208 + Tozasertib; first compound 0.08 µM)	relative viability (AZD1208 + Tozasertib; first compound 0.253 µM)	relative viability (AZD1208 + Tozasertib; first compound 0.8 µM)	relative viability (AZD1208 + Tozasertib; first compound 2.53 µM)	relative viability (AZD1208 + Tozasertib; first compound 8 µM)	relative viability (XMD14-99 + Navitoclax; first compound 0.08 µM)	relative viability (XMD14-99 + Navitoclax; first compound 0.8 µM)	relative viability (XMD14-99 + Navitoclax; first compound 2.53 µM)	relative viability (XMD14-99 + Navitoclax; first compound 8 µM)
NCI-H1666	0.826	0.874	0.792	0.823	0.896	0.826	0.803	0.743	0.59	0.535	0.6	0.513	0.644	0.58	0.994	0.771	0.797	0.566
NCI-H1734	0.404	0.409	0.442	0.427	0.435	0.394	0.448	0.481	0.423	0.272	0.26	0.247	0.219	0.227	0.805	0.816	0.765	0.654
NCI-H1755	0.451	0.457	0.532	0.426	0.413	0.404	0.405	0.4	0.369	0.525	0.532	0.52	0.417	0.358	1.02	0.972	0.926	0.809
NCI-H1793	0.828	0.954	0.716	0.935	0.718	0.403	0.362	0.355	0.334	0.302	0.313	0.314	0.296	0.267	0.424	0.411	0.461	0.386
NCI-H1915	0.452	0.483	0.528	0.462	0.443	0.28	0.289	0.293	0.236	0.427	0.378	0.367	0.249	0.244	0.833	0.761	0.742	0.737
NCI-H1944	0.593	0.652	0.591	0.579	0.535	0.193	0.239	0.222	0.201	0.242	0.225	0.226	0.214	0.202	1.1	1.04	1.01	0.919
NCI-H1975	0.288	0.295	0.282	0.286	0.327	0.307	0.304	0.312	0.248	0.735	0.712	0.736	0.829	0.639	1.05	1.07	1.14	1.08
NCI-H1993	0.481	0.527	0.526	0.568	0.413	0.656	0.539	0.457	0.489	0.667	0.52	0.526	0.566	0.543	0.978	0.922	0.796	0.694
NCI-H2009	1.01	1.03	0.917	1.11	1.06	0.263	0.294	0.261	0.164	0.696	0.785	0.667	0.684	0.597	1.15	1.1	1.03	0.999
NCI-H2023	0.263	0.207	0.241	0.243	0.229	0.536	0.607	0.739	0.404	0.389	0.235	0.254	0.219	0.181	0.985	0.959	0.953	0.849
NCI-H2085	0.912	0.971	0.936	0.817	0.893	0.267	0.261	0.273	0.241	0.811	0.858	0.714	0.868	0.771	1.11	1.1	1.1	0.823
NCI-H2087	0.664	0.713	0.475	0.649	0.627	0.739	0.714	0.55	0.305	0.245	0.2	0.264	0.209	0.212	0.964	0.897	0.632	0.463
NCI-H2126	0.649	0.734	0.652	0.634	0.614	0.617	0.632	0.513	0.402	0.743	0.784	0.816	0.632	0.66	0.844	0.797	0.879	0.793
NCI-H2170	0.244	0.289	0.688	0.275	0.268	0.612	0.62	0.601	0.592	0.718	0.707	0.614	0.447	0.306	0.574	0.594	0.644	0.603
NCI-H2228	0.328	0.368	0.357	0.371	0.344	0.376	0.451	0.405	0.148	0.258	0.165	0.168	0.172	0.108	1.05	0.933	0.918	0.364
NCI-H2347	0.447	0.423	0.468	0.439	0.444	0.284	0.308	0.352	0.204	0.364	0.523	0.524	0.687	0.502	0.736	0.825	0.699	0.488
NCI-H2405	1.01	1	1.02	1.02	0.95	0.21	0.204	0.209	0.173	0.726	0.721	0.693	0.71	0.635	0.825	1.05	0.877	0.436
